Results: the NIST ThermoML archive (doi:10.1021/je034102r)

What was measured:
[1] = for mass density: 101.33 kPa, Liquid, Pycnometric method
[2] = Molar enthalpy of transition or fusion; settings: Crystal

CCCCn1cc[n+](C)c1.F[P-](F)(F)(F)(F)F [1-butyl-3-methylimidazolium hexafluorophosphate]
[1]
Settings | Triple point temperature [K] | mass density [kg/m3]
298.23 K | – | 1365.95
302.89 K | – | 1362.05
307.9 K | – | 1357.94
312.67 K | – | 1353.99
317.58 K | – | 1349.92
322.33 K | – | 1346.02
327.16 K | – | 1342.02
344.23 K | – | 1328.03
348.93 K | – | 1324.35
353.47 K | – | 1320.69
Crystal | 283.51 | –

Settings | Glass transition temperature [°C]
[1], Glass, Adiabatic calorimetry | -82.5

Settings | Molar enthalpy of transition or fusion [kcal/mol]
[2] | 4.685
